The record followed here is US6953779B2, “Melanocortin receptor antagonists and modulations of melanocortin receptor activity” (The Regents of the University of California, priority 1998, dated 2005).

Square brackets hold non-standard residues; d marks the D form. Peptide text beside a SMILES is read from it. * marks the point of attachment. d2Nal = N[C@H](Cc1ccc2ccccc2c1)C(=O)O; Benzoyl(4-OMe) = COc1ccc(C(=O)*)cc1; d2Thi = N[C@H](Cc1cccs1)C(=O)O

This assay relates to heat-induced edema in the anesthetized rat's paw. Put plainly: Suppression of heat-induced edema in the anesthetized rat's paw (anti-inflammatory). The note with it: i.v.; suppression of heat-induced edema in the anesthetized rat's paw. In kind it is in vivo.
Regarding `CC[C@H](C)[C@H](NC(=O)[C@@H](Cc1ccc2ccccc2c1)NC(=O)[C@H](CC(C)C)NC(=O)[C@H](CC(C)C)NC(=O)[C@H](CCCCN)NC(=O)[C@H](CCCNC(=N)N)NC(=O)c1ccc(OC)cc1)C(=O)N[C@H](CC(C)C)C(N)=O` [S-114, p-anisoyl-Arg-Lys-Leu-Leu-D-Nal-Ile-D-Leu-NH2] ({Benzoyl(4-OMe)}-RKLL[d2Nal]I[dL]-NH2), the “Anti-Inflammatory ED50” value was 0.38 (0.16-0.91) mg/kg.

On to `CC[C@H](C)[C@H](NC(=O)[C@@H](Cc1ccc(O)cc1)NC(=O)[C@H](CC(C)C)NC(=O)[C@H](CC(C)C)NC(=O)[C@H](CCCCN)NC(=O)[C@H](CCCNC(=N)N)NC(=O)c1ccc(OC)cc1)C(=O)N[C@H](CC(C)C)C(N)=O` [S-116, p-anisoyl-Arg-Lys-Leu-Leu-D-Tyr-Ile-D-Leu-NH2] ({Benzoyl(4-OMe)}-RKLL[dY]I[dL]-NH2), for which the “Anti-Inflammatory ED50” value is given as 0.080 (0.03-0.20) mg/kg.

As to `CC[C@H](C)[C@H](NC(=O)[C@@H](Cc1c[nH]c2ccccc12)NC(=O)[C@H](CC(C)C)NC(=O)[C@H](CC(C)C)NC(=O)[C@H](CCCCN)NC(=O)[C@H](CCCNC(=N)N)NC(=O)c1ccc(OC)cc1)C(=O)N[C@H](CC(C)C)C(N)=O` [S-117, p-anisoyl-Arg-Lys-Leu-Leu-D-Trp-Ile-D-Leu-NH2] ({Benzoyl(4-OMe)}-RKLL[dW]I[dL]-NH2), the “Anti-Inflammatory ED50” value is reported as 0.16 (0.050-0.40) mg/kg.

In the case of `CC[C@H](C)[C@H](NC(=O)[C@@H](Cc1cccs1)NC(=O)[C@H](CC(C)C)NC(=O)[C@H](CC(C)C)NC(=O)[C@H](CCCCN)NC(=O)[C@H](C)NC(=O)c1ccc(OC)cc1)C(=O)N[C@H](CC(C)C)C(N)=O` [S-118, p-anisoyl-Ala-Lys-Leu-Leu-D-Thi-Ile-D-Leu-NH2] ({Benzoyl(4-OMe)}-AKLL[d2Thi]I[dL]-NH2), the “Anti-Inflammatory ED50” value is reported as 0.035 (0.012-0.10) mg/kg.

With `CC[C@H](C)[C@H](NC(=O)[C@@H](Cc1cccs1)NC(=O)[C@H](CC(C)C)NC(=O)[C@H](C)NC(=O)[C@H](CCCCN)NC(=O)[C@H](CCCNC(=N)N)NC(=O)c1ccc(OC)cc1)C(=O)N[C@H](CC(C)C)C(N)=O` [S-160, p-anisoyl-Arg-Lys-Ala-Leu-D-Thi-Ile-D-Leu-NH2] ({Benzoyl(4-OMe)}-RKAL[d2Thi]I[dL]-NH2), the “Anti-Inflammatory ED50” value was 0.18 (0.07-0.49) mg/kg.

In the case of `CC[C@H](C)[C@H](NC(=O)[C@@H](Cc1cccs1)NC(=O)[C@H](CC(C)C)NC(=O)[C@H](CC(C)C)NC(=O)[C@H](CCCCN)NC(=O)[C@H](CCCNC(=N)N)NC(=O)c1ccc(OC)cc1)C(=O)N[C@H](C)C(N)=O` [S-162, p-anisoyl-Arg-Lys-Leu-Leu-D-Thi-Ile-D-Ala-NH2] ({Benzoyl(4-OMe)}-RKLL[d2Thi]I[dA]-NH2), the “Anti-Inflammatory ED50” value is reported as 0.24 (0.11-0.50) mg/kg.

In the case of `COc1ccc(C(=O)N[C@@H](CCCNC(=N)N)C(=O)N[C@@H](CCCCN)C(=O)N[C@@H](CC(C)C)C(=O)N[C@@H](CC(C)C)C(=O)N[C@H](Cc2cccs2)C(=O)N[C@@H](C)C(=O)N[C@H](CC(C)C)C(N)=O)cc1` [S-163, p-anisoyl-Arg-Lys-Leu-Leu-D-Thi-Ala-D-Leu-NH2] ({Benzoyl(4-OMe)}-RKLL[d2Thi]A[dL]-NH2), the “Anti-Inflammatory ED50” value is 0.067 (0.030-0.15) mg/kg.

On to `CC[C@H](C)[C@H](NC(=O)[C@@H](C)NC(=O)[C@H](CC(C)C)NC(=O)[C@H](CC(C)C)NC(=O)[C@H](CCCCN)NC(=O)[C@H](CCCNC(=N)N)NC(=O)c1ccc(OC)cc1)C(=O)N[C@H](CC(C)C)C(N)=O` [S-164, p-anisoyl-Arg-Lys-Leu-Leu-D-Ala-Ile-D-Leu-NH2] ({Benzoyl(4-OMe)}-RKLL[dA]I[dL]-NH2), for which the “Anti-Inflammatory ED50” value is given as 0.42 (0.18-0.96) mg/kg.

On to `CC[C@H](C)[C@H](NC(=O)[C@@H](Cc1cccs1)NC(=O)[C@H](C)NC(=O)[C@H](CC(C)C)NC(=O)[C@H](CCCCN)NC(=O)[C@H](CCCNC(=N)N)NC(=O)c1ccc(OC)cc1)C(=O)N[C@H](CC(C)C)C(N)=O` [S-165, p-anisoyl-Arg-Lys-Leu-Ala-D-Thi-Ile-D-Leu-NH2] ({Benzoyl(4-OMe)}-RKLA[d2Thi]I[dL]-NH2), for which the “Anti-Inflammatory ED50” value is listed as 0.046 (0.015-0.14) mg/kg.
